Results from paper PMC6952414 (Nature Communications, 2020).
Where “and” joins values, the source holds several entries; their conditions need not be identical. Equal values may be shown once.

system: HA; assay type: binding, IAV H1N1 strain A/Puerto Rico/8/1934 (PR8)

Substance	HA x ratio
RWRVNHH	1.99
RRRVLHH	1.21
RRPVNHQ	1.37 and 1.26 and 0.94
RRRVWHH	0.57
RKPVNHH	1.27 and 1.55 and 1.97
RRHVNHH	1.09
RRRVNHI	0.72
RRRVNDH	0.72
ARRVNHH	0.61
RMRVNHH	0.90
RRKVNHH	0.82
RRRDNHD	0.55 and 0.60 and 0.30
RRRRNHH	1.09
RRRWNHH	0.30
YRRVNHH	1.34
RLRVNHH	1.05
ERRVNHH	0.60
RRRVIHH	0.63
RRRGNHH	0.46
RRRVNHK	0.59
RRRVNHT	1.23
GRRVNHH	0.37
RRPVNHY	1.43 and 0.76 and 0.77
RRRTNHH	0.28
RRRANHH	0.36

Substance	HA x ratio
RRIVNHH	1.20
RRRVNYH	1.55
RRPVNHS	1.08 and 1.99 and 1.46
RRYDNHH	1.25 and 0.92 and 1.56
RHRDNHH	1.05 and 1.04 and 0.77
TRRVNHH	0.39
RRRVFHH	0.71
RRYVNHH	0.69
RRRVNHY	0.36
RRRVNWH	0.80
RRRVNHE	1.77
NRRVNHH	0.43
RRRVKHH	1.27
RRRVNQH	0.65
RRRVYHH	1.10
RRRVRHH	1.24
RRQVNHH	2.55
DRRVNHH	0.65
RRSPNHH	0.39 and 0.47 and 0.43
RARDNHH	0.61 and 0.73 and 0.72
RNRVNHH	1.11
RRRVNHN	0.66
FRRVNHH	0.71
RRSKNHH	1.10 and 0.79 and 1.25
RRRDNHV	1.05 and 1.22 and 1.16

Substance	HA x ratio
RREVNHH	3.11
RVPVNHH	1.05 and 1.07 and 0.75
RRRVHHH	0.35
RYRVNHH	1.46
RRRVNPH	0.89
QRRVNHH	0.78
RRRVNFH	0.93
RSPVNHH	1.07 and 0.89 and 0.72
RKRVNHH	1.35
RRPVNHE	1.47 and 1.30 and 1.11
RHRVNHH	1.57
RRFDNHH	0.56 and 0.46 and 0.45
RPPVNHH	0.98 and 0.96 and 0.50
RRRVQHH	0.71
RTRVNHH	2.79
RRRENHH	0.59
RVRVNHH	0.68
RRRVEHH	0.64
VRRVNHH	0.98
RRFVNHH	2.86
RRSNNHH	0.73 and 0.74 and 0.37
RGRVNHH	1.41
RRRVNHR	1.48
RRPLNHH	0.82 and 0.76 and 0.42
RRRMNHH	2.13

Substance	HA x ratio
RRRVVHH	1.27
RFRVNHH	0.56
RWRDNHH	1.15 and 1.05 and 0.76
RRRLNHH	0.42
RRRVNNH	1.00
RRRVTHH	0.46
RRRVNHM	0.42
RRADNHH	0.49 and 0.70 and 0.62
RRRVPHH	0.90
RRNVNHH	0.61
SRRVNHH	0.49
RRRVNHG	1.43
RRRFNHH	0.78
RRPKNHH	0.76 and 0.64 and 0.51
MRRVNHH	0.73
RGPVNHH	1.56 and 1.10 and 0.92
RRRVNSH	0.86
RRDVNHH	0.60
RRRVGHH	0.56
RIRVNHH	1.38
LRRVNHH	0.80
RRRVNHF	0.66
RRRVNLH	1.09
RRPVNHF	1.54 and 1.38 and 2.67
RDRVNHH	0.80

Substance	HA x ratio
RRHDNHH	1.24 and 1.02 and 1.09
RRNDNHH	0.51 and 0.36 and 0.50
RIPVNHH	1.46 and 1.18 and 0.86
RQPVNHH	0.63 and 0.91 and 1.08
RRRVNHD	0.46
RRVVNHH	0.57
RRMVNHH	0.79
RRRVDHH	1.09
RSRVNHH	2.42
RRRVNIH	0.95
RRRVNHL	0.48
RERVNHH	0.54
RRRDNHP	0.54 and 0.61 and 0.45
RRPVNHK	1.14 and 0.99 and 0.62
RKRDNHH	1.05 and 0.70
RRRPNHH	0.36
RRRNNHH	2.20
RRRVNVH	0.80
RRRVNHP	1.63
RRMDNHH	0.63 and 1.00 and 0.79
RTRDNHH	1.38 and 1.50
RRRVAHH	1.62
RRRVSHH	0.61
RRSMNHH	0.75 and 0.55
RLPVNHH	0.45 and 0.68 and 0.79

Substance	HA x ratio
RFPVNHH	1.20 and 1.08 and 1.00
RRRHNHH	0.30
RRLVNHH	0.69
RRRVNHA	0.56
RRRYNHH	0.39
RARVNHH	1.61
RGRDNHH	0.78 and 1.32 and 1.08
WRRVNHH	0.56
RRRVNHQ	0.72
HRRVNHH	0.38
RRRVNHV	0.49
RHPVNHH	0.90 and 1.23 and 0.70
RRRVNHW	0.44
RQRVNGG	0.75
KRRVNHH	0.87
RRRVNMH	1.22
RRAVNHH	0.96
RRPRNHH	0.65 and 0.78 and 0.39
RRRINHH	0.39
RRSRNHH	1.02 and 0.86 and 0.77
RRRQNHH	1.81
RRSFNHH	0.82 and 0.91 and 0.46
RPRVNHH	0.60
RRRDNHA	1.07 and 0.73 and 0.58
RMRDNHH	0.77 and 0.40 and 0.59

Substance	HA x ratio
RRRVMHH	0.90
RRRVNAH	0.91
RRRVNGH	0.70
PRRVNHH	0.56
RRRVNTH	0.88
RRPVNHT	0.76 and 1.24 and 0.77
RRPNNHH	1.47 and 1.90 and 1.08
RQRDNHH	1.02 and 1.69 and 1.17
RRRSNHH	0.40
RRWVNHH	0.66
RRRDNHQ	0.36 and 0.45 and 0.67
RRGVNHH	2.40
RRRDNHL	0.92 and 0.83 and 0.51
RRRVNEH	0.49
RRRKNHH	1.55
RRRVNRH	0.73
IRRVNHH	0.41
RNPVNHH	1.21 and 1.04 and 0.76
RRRVNKH	1.27
RRRVNHS	1.03
RRTVNHH	1.15
